# Ends that are not written are not given here.
# Tests used:
# [1] = test system: neurogenesis in the MBH and dentate gyrus; assay: BrdU labelling neurogenesis assay with i.c.v. GnRH in old mice; assay type: in vivo; conditions: old C57BL/6 mice; GnRH 1 ng per day i.c.v. (third ventricle); single BrdU injection, 7 days; vs vehicle; FIG. 6a-c
# Experimental: (§1) Immunostaining, histology and western blot. Mice under anaesthesia were perfused with 4% paraformaldehyde, and brains were removed, post-fixed in 4% paraformaldehyde, and infiltrated in 20-30% sucrose. Brain sections were made at 10-μm thickness via a cryostat, blocked with serum, penetrated with Triton-X 100, treated overnight at 4° C. with primary antibody, followed by reaction with fluorescence-conjugated secondary antibody (Jackson), and imaged under a confocal microscope. For BrdU staining, sections were pre-treated with 1 M HCl for 30 min at 37° C., followed by 5-min treatment with 0.1 M sodium borate, pH 8.5. Primary antibodies included rabbit anti-Iba-1 (Wako), rabbit anti-GFAP (Millipore), mouse anti-TNF-α (Abcam), mouse anti-NeuN (Millipore), and goat anti-Cre antibody (Santa Cruz). For Nissl staining, freshly isolated mice brains were fixed in 4% paraformaldehyde in PBS for overnight at 4° C. The fixed whole brains were then subjected to cryosectioning coronally, and frozen sections were stained to detect Nissl body by using the NovaUltra Nissl stain kit (IHCWORLD) according to the manufacturer's instruction.
# (§2) Serial brain sections across the MBH were made at 20 μm thickness, and every five sections were represented by one section with staining and cell counting. […]
# [2] = test system: aging physiology and histology; assay: Daily subcutaneous GnRH therapy: aging physiology and histology (muscle endurance, skeletal muscle fibers, dermal thickness); assay type: in vivo, C57BL/6 mice
# Experimental: (§3) For animal GnRH therapy, mice were subcutaneously injected with GnRH (Sigma) at the dose of 2 ng per mouse on a daily basis for a period of 5-8 weeks. The Institutional Animal Care and Use Committee at the Albert Einstein College of Medicine approved all the procedures. Body weight and food intake were measured regularly using a laboratory scale. The grip test was performed to measure muscle endurance using the method as similarly described in the literature^36,37, using a homemade square grid with a small mesh size to allow mice to hang for longer time. In brief, a mouse was lifted by the tail and placed on a homemade square grid (1-cm mesh size). The grid was then inverted 30.5 cm over a soft pad, and the mouse was allowed to hang by paws for a maximum of 5 min. The time that the mouse was able to hang was recorded during a 5-min test period.
# Tissue histology. Skeletal muscles (quadriceps) and dorsal skin were dissected from mice, fixed in 10% neutralized formalin at 4° C. overnight, and embedded into paraffin. Paraffin sections were prepared at 5-μm thickness and subjected to haematoxylin and eosin staining. Images were collected using an Axioskop II light microscope (Zeiss) and analyzed using Image J.
# [3] = test system: aging-related cognitive decline; assay: Daily subcutaneous GnRH therapy: cognition; assay type: in vivo, C57BL/6 mice; conditions: old MBH-ctrl and MBH-IKK-β mice; peripheral (s.c.) GnRH daily, 5 weeks; FIG. 6i
# Experimental: as §3
# Cognitive behavioral tests. […]
# Hidden-platform training. […] Mice were expected to find the location of the invisible platform, and measured for latency to reach the platform, distance travelled to reach the platform, path efficiency, time spent in and distance travelled in each quadrant as well as total distance and mean swim speed.
# Probe trial. […] Mice were measured for the amount of time spent in all quadrants, distance and number of times that mice crossed the location of the former platform, and total distance and mean swim speed. […]
# [4] = test system: BrdU-labelled cells in the MBH and dentate gyrus; assay: BrdU labelling survival assay with i.c.v. GnRH in old mice; assay type: in vivo; conditions: old C57BL/6 mice; GnRH 1 ng per day i.c.v.; 7 days of daily BrdU injections, thirty-day tracking; FIG. 6d, e
# Experimental: as §1, §2
substance,measurement,setting,value
"gonadotropin-releasing hormone (QHWSYGLRPG; ends and bridges not checked; UniProt P01148 24-33, looked up) [GnRH, gonadotropin-releasing hormone (GnRH), obtained from Sigma]",aging-diminished neurogenesis (BrdU-labelled cells in hypothalamus and hippocampus),[1],substantially reversed
same,anti-aging phenotype,"[2]; MBH-IκB-α mice treated with GnRH, data not shown",did not further enhance the anti-aging phenotype
same,"pro-aging phenotype (muscle endurance, muscle fibers, dermal thickness)","[2]; old MBH-IKK-β mice, GnRH 2 ng per mouse s.c. daily, 5 weeks, FIG. 6f-h",abrogated the pro-aging phenotype
same,"magnitude of aging histology (muscle endurance, muscle fibers, dermal thickness)","[2]; old MBH-ctrl mice, GnRH 2 ng per mouse s.c. daily, 5 weeks, FIG. 6f-h",reduced the magnitude of aging histology
same,aging-related cognitive decline,[3],amelioration of aging-related cognitive decline
same,survival of BrdU-labelled cells in MBH and dentate gyrus,[4],significantly survived
